Laboratory results as given in ChEMBL document CHEMBL1157539, “Thousands of chemical starting points for antimalarial lead identification” (Nature, 2010).

Tested on: Plasmodium falciparum
Assay: GSK_TCMDC: Inhibition of Plasmodium falciparum 3D7 in whole erythrocytes, using parasite LDH activity as an index of growth.
Format: functional, organism-based
Conditions: Plasmodium falciparum, 3D7

| Compound | XC50 [nM] |
| --- | --- |
| COc1ccc(S(=O)(=O)N2CCC3(CC2)OCC(=O)NC3c2ccc(Cl)c(Cl)c2)cc1 (configuration not stated) | 644 |
| CC(Nc1ccnc2cc(Cl)ccc12)c1ccc(S(N)(=O)=O)cc1 (configuration not stated) | 933 |
| COc1ccc2ncc(Cl)c(NCC3(O)CCC(NCc4ccc5c(n4)NC(=O)CS5)CC3)c2n1 (configuration not stated) | 597 |
| CN(CC(=O)Nc1ccc(F)cc1)C(=O)c1ccc(-c2ccc(F)cc2)o1 | 934 |
| O=C(Nc1cc(F)cc(F)c1)NC1CCN(CCCCCNC(=O)C2CC2c2ccc(Cl)c(Cl)c2)CC1 (configuration not stated) | 750 |
| CC(C)CCNCc1ccc(OCc2cccc(COc3ccc(CNCCC(C)C)cc3I)c2)c(I)c1 | 453 |
| CCNc1cc(C(=O)N[C@@H](Cc2ccc(Cl)cc2)[C@H](O)CNC2CCCCC2)cc(N2CCCCS2(=O)=O)c1 | 150 |
| Cc1[nH]cnc1CSCCNC(=N)NCCCCCCCCNC(=N)NCCSCc1nc[nH]c1C | 268 |
| Cc1[nH]c(C)c([N+](=O)[O-])c(=O)c1-c1ccc(Oc2ccccc2)cc1 | 266 |
| COc1ccc(-c2ccc(NC(=O)c3cccc(Cl)c3)cc2)cc1CN(C)CCN(C)C | 782 |
| CC(c1cccc(Nc2nccc(-c3c(-c4cccc(NC(=O)c5c(F)cccc5F)c4)nn4ncccc34)n2)c1)S(C)(=O)=O (configuration not stated) | 45.6 |
| CS(=O)(=O)CCNCc1cccc(-c2ccc3c(Nc4ccc(Oc5cccnc5)cc4)ccnc3c2)c1 | 142 |
| CCOc1ccc(-c2n[nH]c(C(F)(F)F)c2-c2ccccc2OC)c(O)c1 | 1140 |
| Cc1cc(C(=O)NCc2ccc(-c3c(C)noc3C)cc2)n(-c2ccc(Cl)cc2)n1 | 531 |
| COc1ccc(CCNC(=O)c2ccc(-n3cc(NC(=O)c4cccnc4)cn3)cc2)cc1OC | 1070 |
| Fc1ccc2[nH]c(-c3cccc(-c4ccc(CN5CCN(c6ccncc6)CC5)cc4)c3)nc2c1 | 211 |
| O=c1cc(NCCCNCc2cccc(OC(F)(F)F)c2)[nH]c2ccccc12 | 854 |
| O=C(c1ccc(Cl)c(Cl)c1)N1CCc2c([nH]c3ccccc23)C1CN1CCCC1 (configuration not stated) | 825 |
| COc1ccc(N2C(N)=NC(N)=NC2(C)C)cc1 | 113 |
| CCCc1c(C(=O)Nc2ccc3c(c2)CCN(C2CCC2)CC3)cnn1-c1ccc(Cl)cc1 | 858 |
| O=[N+]([O-])c1cccc(CNCC2CCN(Cc3ccc(Cl)c(Cl)c3)CC2)c1 | 913 |
| Cc1cc(-c2ccc3c(c2)CCN(CCC2CCC(NC(=O)/C=C/c4ccc(F)cc4)CC2)CC3)on1 (configuration not stated) | 724 |
| COc1cc(F)c2ncc(Cl)c(CCN3CCC(NCc4ccc5c(c4)NC(=O)CS5)CC3)c2c1 | 313 |
| CSc1cccc(Nc2nc3ccc(S(=O)(=O)NCC(C)C)cc3n2C(C)C(C)C)c1 (configuration not stated) | 824 |
| CC[C@H](C)CNC(=O)c1cncc(-c2ccc(CNC3CCCC3)cc2)c1 | 1120 |

| Compound | XC50 [nM] |
| --- | --- |
| Cc1ccc(S(C)(=O)=O)cc1/C=C/C(=O)O | 868 |
| CCN(CC)CCCC(C)N/C(=N\c1ccccc1Br)Nc1ccc(C#N)cc1O (configuration not stated) | 1040 |
| CN1CCC(C(=O)Nc2cccc(-c3ccc(-c4nc5ccccc5[nH]4)cc3)c2)CC1 | 1090 |
| COc1ccc2nccc([C@@H](O)CN3CCC(NCc4ccc5nnsc5c4)CC3)c2c1 | 714 |
| COC(=O)c1cc(C(O)CNC(C)CCc2cccc(F)c2)ccc1O (configuration not stated) | 1180 |
| FC(F)(F)c1cccc(Nc2nc(-c3ccccc3)nc3ncccc23)c1 | 802 |
| Cc1nc(N)nc(N)c1-c1cc(Cl)c(N)c(Cl)c1 | 805 |
| COc1cccc(Nc2c(C(N)=O)cnc3ccc(-c4ccc([S+](C)[O-])cc4)cc23)c1 (configuration not stated) | 186 |
| CC1CCCCN1CCCNc1ncc2c(-c3ccc(NC(=O)Nc4cc(C(F)(F)F)ccc4F)c(F)c3)nn(C)c2n1 (configuration not stated) | 263 |
| CC(=O)Nc1ccc(S(=O)(=O)NC2=NC(=N)N(OCc3ccc(Cl)c(Cl)c3)C(C)(C)N2)cc1 | 33.9 |
| Cc1[nH]c(C)c(-c2ccc(OCc3cc(C(F)(F)F)cc(C(F)(F)F)c3)nc2)c(=O)c1Cl | 108 |
| COc1ccc(Nc2nc(NC3CCN(C)CC3)cc(-c3ccc(OC)cc3)n2)cc1 | 545 |
| COC(=O)c1cccc(NC(=O)NCCNc2ccnc(Nc3ccc(F)cc3)n2)c1 | 837 |
| CN1C(=O)OC[C@@H]1Cc1ccc2[nH]cc(C3=CCN(Cc4ccccc4)CC3)c2c1 | 417 |
| CC(C)(C)c1ccc(CN2CCCCC(NC(=O)c3cc(-c4ccccc4F)cs3)C2)cc1 (configuration not stated) | 267 |
| Cc1cc(C)c2cc(CNCCCNc3nc4ccccc4[nH]3)[nH]c2c1 | 768 |
| CC1=C(C(=O)Nc2cc3cn[nH]c3cc2F)C(c2cccc(O)c2F)CC(=O)N1 (configuration not stated) | 629 |
| Cc1cc(OCCCNc2nc(NCCc3ccc(O)cc3)nc(N3CCNCC3)n2)c(Cl)c(C)c1Cl | 956 |
| CCCc1cc(Cc2cnc(N)nc2N)cc(CCC)c1OCCCC(=O)OCC | 51.8 |
| Cn1cc(CN2CCCC(COC(c3ccc(F)cc3)c3ccc(F)cc3)C2)cn1 (configuration not stated) | 571 |
| Cn1cccc1C(=O)NCC(CCNc1cc(=O)c2ccccc2[nH]1)NCc1cc(Br)cc(Br)c1 (configuration not stated) | 911 |
| COc1ccc(Nc2nc(N)c3cc(OC)c(OC)cc3n2)cc1OC | 732 |
| COc1cc2nc(NCC3CCCO3)n3nc(-c4ccccc4)nc3c2cc1OC (configuration not stated) | 211 |
| O=[N+]([O-])c1cccc(CNCC2CCN(Cc3ccc(O)cc3)CC2)c1 | 666 |
| Cc1cc(NC(=O)c2cc(S(=O)(=O)N3CCCCC3)ccc2C)no1 | 725 |

| Compound | XC50 [nM] |
| --- | --- |
| O=c1c(NCCCN(Cc2ccc(F)cc2)c2ccccn2)c(NCc2ccncc2)c1=O | 153 |
| O=C(Nc1ccc(CN2CCC(c3c[nH]c4ccc(O)cc34)CC2)cc1)c1ccc(-c2ccccc2)cc1 | 253 |
| CCN(CC)CCCNc1nccc(N(C)c2ccc(NC(=O)Nc3cc(C(F)(F)F)ccc3F)cc2)n1 | 1050 |
| COc1ccc(CCNCCCCCCNCCc2ccc(Cl)cc2)c(Cl)c1OC | 825 |
| O=C1c2ccccc2C(=O)N1c1ccc(S(=O)(=O)N2CCOCC2)cc1 | 1260 |
| Brc1ccccc1CNc1ccnc(NCCn2ccnc2)n1 | 900 |
| C[C@@H](CNc1ccnc(Nc2ccc3[nH]c(=O)[nH]c3c2)n1)c1ccccc1 | 1100 |
| O=C(Nc1ccc(Cl)c(Cl)c1)Nc1cc(C(F)(F)F)ccc1Cl | 1440 |
| O=C(Cc1cccc(Cl)c1)Nc1cccc(-c2c[nH]c3nc(Nc4cccc(OCc5ccccc5)c4)ncc23)c1 | 1040 |
| Cc1cccc(-c2nc3[nH]c(=O)cc(NC(=O)C(C)C)n3n2)c1 | 421 |
| Oc1ccc(CCNCCCCCCNCCc2ccc(-c3ccccc3)cc2)cc1O | 603 |
| OC1(c2ccccc2)CCN(Cc2cccc(-c3c[nH]c4nc(NC5CCCC5)ncc34)c2)C1 (configuration not stated) | 914 |
| COc1ccc(CNC(=O)NC2CCN(c3ccnc(Nc4ccc(OC)cc4)n3)C2)cc1 (configuration not stated) | 1000 |
| CCC(C)(C)c1ccc(S(=O)(=O)Nc2ccc(Cl)c(OCCN3CCCCC3)c2)cc1 | 1110 |
| Cc1cccc2nc(-c3cccc(-c4cccc(NC(=O)c5cncn5C)c4)c3)[nH]c12 | 167 |
| Cc1nn(-c2ccccc2)nc1C(=O)N(Cc1ccc(-c2ccc(CNCCc3ccc(S(C)(=O)=O)cc3)cn2)cc1)C(C)CN(C)C (configuration not stated) | 682 |
| O=C(Nc1ccc(OC2CCN(Cc3ccc(F)cc3)C2)c(Cl)c1)c1ccccc1 (configuration not stated) | 787 |
| O=C(Nc1cccc(CN2CCCN(Cc3ccc(O)cc3)CC2)c1)c1ccc2ccccc2c1 | 373 |
| COc1ccc2nc(C)cc(Nc3ccc(Oc4ccc(Br)c5ccccc45)c(Cl)c3)c2c1 | 277 |
| Nc1nc2c(ncn2COC(COCc2ccccc2)COCc2ccccc2)c(=O)[nH]1.Nc1nc2ncn(COC(COCc3ccccc3)COCc3ccccc3)c2c(=O)[nH]1 | 714 |
| CN(Cc1cccc(F)c1)C1CCCN(c2cc(NC(=O)c3ccccc3)ccn2)C1 (configuration not stated) | 919 |
| CC(C)(C)c1ccc(OCCCON2C(=N)N=C(N)NC2(C)C)c(C(C)(C)C)c1 | 3.2 |
| CC(C)CN1C(=O)C(c2ccc(F)c(F)c2)=C(O)C1c1ccccc1 (configuration not stated) | 185 |
| N=C(NCCCCC1CCCCC1)c1cccc(C(=N)NCCCCC2CCCCC2)n1 | 395 |
| COc1ccc2nccc([C@@H](O)CN3CCC(NCCc4c[nH]c5ccccc45)CC3)c2c1 | 210 |

| Compound | XC50 [nM] |
| --- | --- |
| CN1CCN(c2ccc(Nc3nc(N)c4ccn(C5CCC5)c4n3)cc2)CC1 | 1220 |
| CCC[C@@H]([C@@H](CC1CCCCC1)C(=O)N[C@H](C(=O)Nc1nccs1)C(C)(C)SCCNC(=O)OCC)N(O)C=O | 83.4 |
| OC(CNCc1ccccc1OCc1ccccc1)c1cccc(C(F)(F)F)c1 (configuration not stated) | 364 |
| COc1cc(F)c2ncc(Cl)c(CCN3CCC(NCc4ccc5c(c4)NC(=O)CO5)CC3)c2c1 | 227 |
| O=C(N[C@H](CC1CCCCC1)C(=O)NC1CCCc2ccccc21)c1ccc(O)c(-c2cccc([N+](=O)[O-])c2)c1 (some centres not stated) | 610 |
| CCOC(=O)NC1=NC(C)(C)N(OCCCOc2ccc(C)cc2C)C(NC(=O)OCC)=N1 | 126 |
| CCCCNC(=O)[C@H](CC1CCCCC1)NC(=O)c1ccc(O)c(-c2ccc(OC)cc2)c1 | 920 |
| CN(C)CCN(C)Cc1ccc(-c2ccc3c(Nc4ccc(Cl)cc4F)ccnc3c2)o1 | 360 |
| CCN(CC)CCCN(CCCN(CC)CC)c1cc(C)nc(Nc2ccc(Cl)cc2)n1 | 211 |
| COc1ccc(CCNCCCCCCNCCc2cccc([N+](=O)[O-])c2)cc1OC | 997 |
| CCN(C1CCCCC1)S(=O)(=O)c1ccc(OC)c(N2CCN(C(=O)C(Cl)(Cl)Cl)CC2)c1 | 635 |
| CCC(C)(C)n1c(C)cc2c3c(N)nc(N)nc3ccc21 | 3.2 |
| COCC(=O)N(Cc1ccccc1-c1ccc(CNCCc2ccccc2)cc1)C1CCN(Cc2ccccc2)CC1 | 895 |
| CCCN(CCCN(CCCN(CCC)C(C)C)c1cc(C)nc(Nc2ccc(Cl)cc2)n1)C(C)C | 113 |
| CCCCn1c(C)c(C(=O)OCC)c2cc(OC(C)=O)c(Br)cc21 | 625 |
| Cc1noc(C)c1-c1ccc2c(Nc3ccccc3C(C)(C)C)c(C(=O)NC3CCCC3)cnc2c1 | 1040 |
| O=C(NCCCN1CCN(c2cccc(Cl)c2)CC1)c1ccc(-c2nc3cc(Cl)c(Cl)cc3[nH]2)cc1 | 697 |
| c1ccc(COc2ccnc(NCCCOc3cccc(CN4CCCCC4)c3)c2)cc1 | 994 |
| CCCCNCc1ccc(-c2nc(CN(C(=O)Nc3cc([N+](=O)[O-])ccc3F)C3Cc4ccccc4C3)cs2)cc1 | 1100 |
| Oc1cc(Nc2ccnc3ccc(I)cc23)c(F)cc1Cl | 1230 |
| O=C(C=Cc1ccc(F)cc1)NC1CCC(CCN2CCc3ccc(-c4cnccn4)cc3CC2)CC1 (configuration not stated) | 695 |
| CCOc1ccc2nc3cc(N)ccc3c(N)c2c1 | 527 |
